Patent EP0415303B1, “Pyrido [2,3-b][1,5]benzoxazepin (and thiazepin)-5(6H)-ones and -thiones and their use in the prevention or treatment of HIV infection” (BOEHRINGER INGELHEIM PHARMACEUTICALS INC., priority 1989, dated 1991)

Legend:
HIV-1 RT = biological target: T1, HIV-1 RT (Human immunodeficiency virus type 1 group M subtype B, UniProt P03367); assay: Reverse Transcriptase (RT) Assay: inhibition of RNA-dependent DNA polymerase activity; format: biochemical; parameters: RT Inhibition % @ 10 »g/ml: tested at 10 µg/ml; conditions: for RT Inhibition % @ 10 »g/ml: poly r(C)/oligo d(G) template, ³H-dGTP, 60 minutes at room temperature; for inhibition at 1 µM: compound at 1 »M (footnote *), read-out: RT Inhibition % (* % inh. @ 1 »M)
T1 construct: Reverse transcriptase enzyme from the LAV strain of Human Immunodeficiency Virus (HIV-1) (1) was isolated from the bacterial strain JM109; made in house; host or cells: E. coli JM109, clone pBRTprtl+ in vector pIBI21 (lac promoter, IPTG induction)
Description: Utilizing the Reverse Transcriptase (RT) Assay described below, compounds can be tested for their ability to inhibit the RNA-dependent DNA polymerase activity of HIV-1 RT. Certain specific compounds described in the Examples which appear below, were so tested.
Among the enzymes for which Human Immunodeficiency Virus (HIV-1) encodes is a reverse transcriptase (1), so-named because it transcribes a DNA copy from an RNA template. This activity can be quantitatively measured in a cell-free enzyme assay, which has been previously described (2), and is based upon the observation that reverse transcriptase is able to use a synthetic template [poly r(C) primed with oligo d(G)] to transcribe a radio-labelled, acid-precipitable DNA strand utilizing ³H-dGTP as a substrate.
Reverse transcriptase enzyme from the LAV strain of Human Immunodeficiency Virus (HIV-1) (1) was isolated from the bacterial strain JM109 (3) expressing the DNA clone pBRTprtl+ (2) which is under the control of the lac promotor in the expression vector pIBI21 (4). An overnight culture grown in 2XYT medium (37°C, 225 rpm) (5) supplemented with 100 »g/ml ampicillin for positive selection is inoculated at a 1:40 dilution into M9 medium supplemented with 10»g/ml thiamine, 0.5% casamino acids, and 50 »g/ml ampicillin (5). The culture is incubated (37°C, 225 rpm) until it reaches an OD540 of 0.3-0.4. At that time the repressor inhibitor IPTG (isopropyl β-D-thiogalactopyranoside) is added to 0.5mM, and the mixture is incubated for 2 additional hours. Bacteria are pelleted, resuspended in a 50mM Tris, 0.6mM EDTA, 0.375M NaCl buffer and digested by the addition of lysozyme (1mg/ml) for 30 minutes on ice. The cells are lysed by the addition of 0.2% NP-40 and brought to 1M NaCl.
After removal of the insoluble debris by centrifugation, the protein is precipitated by the addition of 3 volumes of saturated aqueous ammonium sulfate. The enzyme is pelleted, resuspended in RT buffer (50mM Tris pH 7.5, 1mM EDTA, 5mM DTT, 0.1% NP-40, 0.1M NaCl, and 50% glycerol), and stored at -70°C for further use.
The 2X concentrated stock reaction mixture is aliquoted and stored at -20°C. The mixture is stable and thawed for use in each assay. This enzyme assay has been adapted to a 96 well microtiter plate system, and has been previously described (6). Tris buffer (50 mM, pH 7.4), vehicle (solvent diluted to match the compound dilution), or compounds in vehicle are dispensed into 96-well microtiter plates (10»l/well; 3 wells/ compound). The HIV-1 RT enzyme is thawed, diluted in 50mM Tris pH 7.4 so that fifteen »l of diluted enzyme contain 0.001 Unit (one unit is that amount of enzyme to transform 1 micromole of substrate per minute at 25°C), and fifteen »l are dispensed per well. Twenty »l of 0.12-0.5M EDTA are added to the first three wells of the microtiter plate. EDTA chelates the Mg⁺⁺ present and prevents reverse transcription. This group serves as background polymerization which is subtracted from all other groups. Twenty-five ul of the 2X reaction mixture are added to all wells and the assay is allowed to incubate at room temperature for 60 minutes. The assay is terminated by precipitating the DNA in each well with 50»l of 10% trichloracetic acid (TCA) (10% w/v) in sodium pyrophosphate (1% w/v). The microtiter plate is incubated for 15 minutes at 4°C and the precipitate is fixed onto #30 glass fiber paper (Schleicher & Schuell) using a Skatron semi-automatic harvester. The filters are then washed with additional TCA (5%) containing sodium pyrophosphate (1%), rinsed with aqueous ethanol (70%), dried, and transferred to scintillation vials (6). Each vial receives 2 mls of scintillation cocktail and is counted in a Beckman beta counter.
The calculation for percent inhibition is as follows: [formula]

[1] = MTT Assay for Cellular Cytotoxicity; format: cell-based; conditions: human; H9 cells, five days incubation, MTT read at 570nm; read-out: Cytotoxicity Assay (EC₅₀)
Experimental: In order to roughly assess the cytotoxicity of the compounds provided by the invention, several such compounds were tested in the MTT Cellular Cytotoxicity Assay described below. Compounds having a relatively high EC₅₀ are preferred.
The MTT [3-(4,5-dimethylthiazol-2-yl)-2,5 diphenyl tetrazolium bromide) assay is based on cleavage of tetrazolium bromide by metabolically active cells, resulting in a highly quantitative blue color. This assay has been previously described (1) but has been optimized for the purposes of the testing reported herein.
The H9 cell line (2), an established human lymphoma suspension cell line grown in RPMI 1640 supplemented with 10% fetal bovine serum, is used as the target cell line in the assay. Cells (100»l) are plated in microtest plate wells at a concentration of 10⁵ cells per ml in the presence of varying concentrations of inhibitor. The cells are incubated at 37°C in a humidified CO₂ incubator. Five days later, 20»l of MTT (5mg/ml in RPMI 1640, sonicated, 0.2 micron filtered, and stored at 4°C) is added to each well. After 4 hours additional incubation at 37°C, 60»l of Triton-X is added to each well and thoroughly mixed to aid the solubilization of the crystals. Absolute ethanol (5»l) is added to each well and the resulting mixture is incubated for 30 minutes at 60°C and immediately read on a plate reader (Dynatech) at a wavelength of 570nm. […]

Row | Structure (SMILES) | RT Inhibition % @ 10 »g/ml (HIV-1 RT) [%] | inhibition at 1 µM (HIV-1 RT) [%] | also measured
1 | CCCN1C(=O)c2cccnc2Oc2ccccc21 [Example 1, 6-(n-Propyl)pyrido[2,3-b][1,5]benzoxazepin-5(6H)-one] | 80 |  | 
2 | CCN1C(=O)c2cccnc2Sc2ccccc21 [Example 2, 6-Ethylpyrido[2,3-b][1,5]benzothiazepin-5(6H)-one] | 89 |  | 
3 | Cc1ccc2c(c1)Oc1ncc(N)cc1C(=O)N2C [Example 3, 3-Amino-6,9-dimethylpyrido[2,3-b][1,5]benzoxazepin-5(6H)-one] |  | 57 | CC50 at 120 h [1]: 315 µM
4 | Cc1cc(C)c2c(c1)Oc1ncc(N)cc1C(=O)N2C [Example 4, 3-Amino-6,7,9-trimethylpyrido[2,3-b][1,5]benzoxazepin-5(6H)-one] |  | 92 | 
5 | CCN1C(=O)c2cc(N)cnc2Oc2cc(C)cc(C)c21 [Example 5, 3-Amino-7,9-dimethyl-6-ethylpyrido[2,3-b][1,5]benzoxazepin-5(6H)-one] |  | 93 | 
6 | CCCN1C(=O)c2cc(N)cnc2Oc2cc(C)cc(C)c21 [Example 6, 3-Amino-7,9-dimethyl-6-(n-propyl)pyrido[2,3-b][1,5]benzoxazepin-5(6H)-one] |  | 82 | 
7 | CN1C(=O)c2cccnc2Oc2ccccc21 [Example 7, 6-Methylpyrido[2,3-b][1,5]benzoxazepin-5(6H)-one] | 71 |  | 
8 | CCN1C(=O)c2cccnc2Oc2ccccc21 [Example 8, 6-Ethylpyrido[2,3-b][1,5]benzoxazepin-5(6H)-one] | 77 |  | 
9 | C=CCN1C(=O)c2cccnc2Oc2ccccc21 [Example 9, 6-Allylpyrido[2,3-b][1,5]benzoxazepin-5(6H)-one] | 89 |  | 
10 | CCC(=O)N1C(=O)c2cccnc2Oc2ccccc21 [Example 10, 6-Propionylpyrido[2,3-b][1,5]benzoxazepin-5(6H)-one] | 28 |  | 
11 | Cc1ccc2c(c1)Oc1ncccc1C(=O)N2C [Example 11, 6,9-Dimethylpyrido[2,3-b][1,5)benzoxazepin-5(6H)-one] |  | 43 | 
12 | CCN1C(=O)c2cccnc2Oc2cc(C)ccc21 [Example 12, 6-Ethyl-9-methylpyrido[2,3-b][1,5]benzoxazepin-5(6H)-one] |  | 67 | 
13 | Cc1ccc2c(c1)Oc1ncc(O)cc1C(=O)N2C [Example 13, 3-Hydroxy-6,9-dimethylpyrido[2,3-b][1,5]benzoxazepin-5(6H)-one] |  |  | inhibition at 2.5 µM (HIV-1 RT; compound at 2.5 »M (footnote †), read-out: RT Inhibition % († % inh. @ 2.5 »M)): 41%
14 | CCN1C(=O)c2cccnc2Oc2cccc(N)c21 [Example 14, 7-Amino-6-ethylpyrido[2,3-b][1,5]benzoxazepin-5(6H)-one] |  | 33 | 
15 | CN1C(=O)c2cccnc2Sc2ccccc21 [Example 15, 6-Methylpyrido[2,3-b][1,5]benzothiazepin-5(6H)-one] | 85 |  | 
